Experimental data published in PubChem BioAssay (NCI).
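These data come from cells grown in 96-well plates and exposed to compound for 48 hours at five concentrations. TGI marks complete inhibition of growth.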

How the values were obtained:
Assay in all cases: NCI-60 cell line screen, 48 h
SK-MEL-5 melanoma = system: SK-MEL-5 melanoma
SNB-75 CNS = system: SNB-75 CNS
PC-3 prostate = system: PC-3 prostate
SR leukemia = system: SR leukemia
HOP-92 NSCLC = system: HOP-92 NSCLC
SF-295 CNS = system: SF-295 CNS
M14 melanoma = system: M14 melanoma
UACC-62 melanoma = system: UACC-62 melanoma
MDA-MB-231 breast = system: MDA-MB-231 breast
EKVX NSCLC = system: EKVX NSCLC
MCF7 breast = system: MCF7 breast
A549 NSCLC = system: A549 NSCLC
IGROV1 ovarian = system: IGROV1 ovarian
SF-539 CNS = system: SF-539 CNS
HOP-62 NSCLC = system: HOP-62 NSCLC
HCT-116 colon = system: HCT-116 colon
NCI/ADR-RES ovarian = system: NCI/ADR-RES ovarian
UACC-257 melanoma = system: UACC-257 melanoma
A498 renal = system: A498 renal
OVCAR-8 ovarian = system: OVCAR-8 ovarian
MDA-N = system: MDA-N
U251 CNS = system: U251 CNS
T-47D breast = system: T-47D breast
HT29 colon = system: HT29 colon
NCI-H522 lung = system: NCI-H522 lung
SN12C renal = system: SN12C renal
HCC-2998 colon = system: HCC-2998 colon
LOX IMVI melanoma = system: LOX IMVI melanoma
NCI-H226 lung = system: NCI-H226 lung
OVCAR-5 ovarian = system: OVCAR-5 ovarian
HCT-15 colon = system: HCT-15 colon
HL-60(TB) leukemia = system: HL-60(TB) leukemia
DU-145 prostate = system: DU-145 prostate
NCI-H460 lung = system: NCI-H460 lung
SW-620 colon = system: SW-620 colon
MOLT-4 leukemia = system: MOLT-4 leukemia
NCI-H23 lung = system: NCI-H23 lung
TK-10 renal = system: TK-10 renal
RXF 393 renal = system: RXF 393 renal
SK-MEL-2 melanoma = system: SK-MEL-2 melanoma
SK-MEL-28 melanoma = system: SK-MEL-28 melanoma
CAKI-1 renal = system: CAKI-1 renal
BT-549 breast = system: BT-549 breast
HS 578T breast = system: HS 578T breast
K-562 leukemia = system: K-562 leukemia
SNB-19 CNS = system: SNB-19 CNS
MDA-MB-435 = system: MDA-MB-435
RPMI-8226 leukemia = system: RPMI-8226 leukemia
OVCAR-3 ovarian = system: OVCAR-3 ovarian
ACHN renal = system: ACHN renal
COLO 205 colon = system: COLO 205 colon
SK-OV-3 ovarian = system: SK-OV-3 ovarian
OVCAR-4 ovarian = system: OVCAR-4 ovarian
CCRF-CEM leukemia = system: CCRF-CEM leukemia
KM12 colon = system: KM12 colon
SF-268 CNS = system: SF-268 CNS

## O=c1ccc2ccc(CBr)cc2o1
SK-MEL-5 melanoma
  TGI: 8.96 µM
SNB-75 CNS
  TGI: > 100 µM
PC-3 prostate
  TGI: > 100 µM
SR leukemia
  TGI: 5.05 µM
HOP-92 NSCLC
  TGI: 3.13 µM
SF-295 CNS
  TGI: 28.7 µM
M14 melanoma
  TGI: 8.92 µM
UACC-62 melanoma
  TGI: 23.1 µM
MDA-MB-231 breast
  TGI: 4.14 µM
EKVX NSCLC
  TGI: 5.94 µM
MCF7 breast
  TGI: 3.87 µM
A549 NSCLC
  TGI: 30.1 µM
IGROV1 ovarian
  TGI: 13.1 µM
SF-539 CNS
  TGI: 13.9 µM
HOP-62 NSCLC
  TGI: 30.6 µM
HCT-116 colon
  TGI: 3.74 µM
NCI/ADR-RES ovarian
  TGI: 3.73 µM
UACC-257 melanoma
  TGI: 24 µM
A498 renal
  TGI: 29.5 µM
OVCAR-8 ovarian
  TGI: 4.06 µM
MDA-N
  TGI: 15.1 µM
U251 CNS
  TGI: 3.36 µM
T-47D breast
  TGI: 5.76 µM
HT29 colon
  TGI: 6.41 µM
NCI-H522 lung
  TGI: 2.55 µM
SN12C renal
  TGI: 7.22 µM
HCC-2998 colon
  TGI: 9.53 µM
LOX IMVI melanoma
  TGI: 3.01 µM
NCI-H226 lung
  TGI: 23 µM
OVCAR-5 ovarian
  TGI: 3.29 µM
HCT-15 colon
  TGI: 3.45 µM
HL-60(TB) leukemia
  TGI: 3.58 µM
DU-145 prostate
  TGI: 30.8 µM
NCI-H460 lung
  TGI: 25.3 µM
SW-620 colon
  TGI: 3.2 µM
MOLT-4 leukemia
  TGI: 5.98 µM
NCI-H23 lung
  TGI: 8.91 µM
TK-10 renal
  TGI: 3.37 µM
RXF 393 renal
  TGI: 3.47 µM
SK-MEL-2 melanoma
  TGI: 26.6 µM
SK-MEL-28 melanoma
  TGI: 26.6 µM
CAKI-1 renal
  TGI: 2890 nM
BT-549 breast
  TGI: 8.99 µM
HS 578T breast
  TGI: 28.9 µM
K-562 leukemia
  TGI: 5.2 µM
SNB-19 CNS
  TGI: 24.8 µM
MDA-MB-435
  TGI: 10.4 µM

## CCN1c2ccccc2NC(=S)c2c1n[nH]c2-c1ccccc1
SK-MEL-5 melanoma
  TGI: 43.2 µM
SNB-75 CNS
  TGI: > 100 µM
PC-3 prostate
  TGI: 84.6 µM
SR leukemia
  TGI: 67.3 µM
HOP-92 NSCLC
  TGI: > 100 µM
RPMI-8226 leukemia
  TGI: 43.9 µM
SF-295 CNS
  TGI: 59.3 µM
M14 melanoma
  TGI: > 100 µM
OVCAR-3 ovarian
  TGI: > 100 µM
UACC-62 melanoma
  TGI: > 100 µM
MDA-MB-231 breast
  TGI: 61.8 µM
ACHN renal
  TGI: > 100 µM
EKVX NSCLC
  TGI: > 100 µM
COLO 205 colon
  TGI: > 100 µM
MCF7 breast
  TGI: 74.9 µM
A549 NSCLC
  TGI: 84.5 µM
IGROV1 ovarian
  TGI: > 100 µM
SK-OV-3 ovarian
  TGI: > 100 µM
SF-539 CNS
  TGI: > 100 µM
HCT-116 colon
  TGI: > 100 µM
NCI/ADR-RES ovarian
  TGI: 60.9 µM
UACC-257 melanoma
  TGI: > 100 µM
OVCAR-8 ovarian
  TGI: > 100 µM
MDA-N
  TGI: 32.6 µM
U251 CNS
  TGI: 50.1 µM
T-47D breast
  TGI: 74.5 µM
HT29 colon
  TGI: > 100 µM
NCI-H522 lung
  TGI: 52.8 µM
SN12C renal
  TGI: > 100 µM
HCC-2998 colon
  TGI: 19.3 µM
LOX IMVI melanoma
  TGI: > 100 µM
OVCAR-5 ovarian
  TGI: > 100 µM
HCT-15 colon
  TGI: 87.9 µM
HL-60(TB) leukemia
  TGI: 29.9 µM
DU-145 prostate
  TGI: > 100 µM
OVCAR-4 ovarian
  TGI: > 100 µM
NCI-H460 lung
  TGI: 77.2 µM
SW-620 colon
  TGI: 84.7 µM
MOLT-4 leukemia
  TGI: 38.2 µM
NCI-H23 lung
  TGI: > 100 µM
CCRF-CEM leukemia
  TGI: 49.4 µM
TK-10 renal
  TGI: > 100 µM
RXF 393 renal
  TGI: > 100 µM
SK-MEL-2 melanoma
  TGI: 60.1 µM
KM12 colon
  TGI: 91.1 µM
SF-268 CNS
  TGI: 95.6 µM
SK-MEL-28 melanoma
  TGI: > 100 µM
CAKI-1 renal
  TGI: > 100000 nM
BT-549 breast
  TGI: > 100 µM
HS 578T breast
  TGI: > 100 µM
K-562 leukemia
  TGI: 39.8 µM
MDA-MB-435
  TGI: 52.5 µM
